Laboratory results from ChEMBL document CHEMBL3244037, “6-Aryl-4H-s-triazolo[4,3-a][1,4]benzodiazepines. Influence of 1-substitution on pharmacological activity” (J Med Chem, 1979).

Legend:
Mus musculus [1] = assay: Inhibition of apomorphine-induced cage climbing in ip dosed albino CF1 mouse compound administered prior to challenge measured for 5 mins after 5 mins of challenge; format: functional
Mus musculus [2] = assay: Anticonvulsant activity in ip dosed albino CF1 mouse assessed as protection against pentylenetetrazole-induced clonic convulsions; format: functional
Mus musculus [3] = assay: Inhibition of oxotremorine-induced hypothermia in ip dosed albino CF1 mouse; format: functional
Mus musculus [4] = assay: Hypothermic activity in ip dosed albino CF1 mouse assessed as effect on body temperature measured after 45 mins; format: functional; details: 0.75 h
Mus musculus [5] = assay: Potentiation of apomorphine-induced gnawing in ip dosed albino CF1 mouse; format: organism-based
Mus musculus [6] = assay: […] activity in ip dosed albino CF1 mouse assessed as potentiation of gamma-butyrolactone-induced sleep; format: functional
Mus musculus [7] = assay: Anticonvulsant activity in ip dosed albino CF1 mouse assessed as inhibition of bicucullin-induced tonic extensor convulsions; format: functional
Mus musculus [8] = assay: Inhibition of amphetamine aggregation toxicity in ip dosed albino CF1 mouse compound administered 1 hr prior to challenge measured after 2 hrs; format: functional
Mus musculus [9] = assay: Reduction of hypoxic stress in ip dosed albino CF1 mouse assessed as prolongation of hypoxic survival time; format: functional
Mus musculus [10] = assay: Potentiation of yohimbine toxicity in ip dosed aggregated albino CF1 mouse; format: organism-based

| SMILES | ED50 (Mus musculus [1]) | ED50 (Mus musculus [2]) | ED50 (Mus musculus [3]) | ED50 (Mus musculus [4]) | ED50 (Mus musculus [5]) | ED50 (Mus musculus [6]) | ED50 (Mus musculus [7]) | ED50 (Mus musculus [8]) | ED50 (Mus musculus [9]) | ED50 (Mus musculus [10]) |
| --- | --- | --- | --- | --- | --- | --- | --- | --- | --- | --- |
| CN(C)CCCN1c2ccccc2Sc2ccc(Cl)cc21 [CHLORPROMAZINE] | 1 mg/kg | > 50 mg/kg | 0.9 mg/kg | 1 mg/kg | 1 mg/kg | 0.5 mg/kg | 50 mg/kg | 1 mg/kg | > 50 mg/kg |  |
| CN1C(=O)CN=C(c2ccccc2)c2cc(Cl)ccc21 [DIAZEPAM] | > 50 mg/kg | 0.1 mg/kg | > 50 mg/kg | 14.9 mg/kg | > 50 mg/kg | 0.035 mg/kg | 2.6 mg/kg | > 50 mg/kg | 0.2 mg/kg | > 50 mg/kg |
| CN1CCN(c2nnc3n2-c2ccc(Cl)cc2C(c2ccccc2)=NC3)CC1 | > 50 mg/kg | 1.6 mg/kg | 7.4 mg/kg | > 50 mg/kg | 17.7 mg/kg | 0.7 mg/kg | 10.5 mg/kg | > 50 mg/kg | > 50 mg/kg | > 50 mg/kg |
| CN(C)C(=O)Cc1nnc2n1-c1ccc(Cl)cc1C(c1ccccc1)=NC2 | > 50 mg/kg | 5.6 mg/kg | > 50 mg/kg | > 50 mg/kg | > 50 mg/kg | 10 mg/kg | 40 mg/kg | > 50 mg/kg | > 50 mg/kg | > 50 mg/kg |
| c1ccc(C2=NCc3nnc(N4CCOCC4)n3-c3ccccc32)cc1 | > 50 mg/kg | 9 mg/kg | > 50 mg/kg | > 50 mg/kg | > 50 mg/kg | 20 mg/kg | > 50 mg/kg | > 50 mg/kg | > 50 mg/kg | > 50 mg/kg |
| COCc1nnc2n1-c1ccc(Cl)cc1C(c1ccccc1)=NC2 | > 50 mg/kg | 2 mg/kg | > 50 mg/kg | 30 mg/kg | > 50 mg/kg | 2 mg/kg | 0.6 mg/kg | > 50 mg/kg | 20 mg/kg | > 50 mg/kg |
| OCCN1CCN(c2nnc3n2-c2ccc(Cl)cc2C(c2ccccc2)=NC3)CC1 | > 50 mg/kg | 42 mg/kg | > 50 mg/kg | > 50 mg/kg | 25 mg/kg | 1.6 mg/kg | 8.8 mg/kg | > 50 mg/kg | > 50 mg/kg | > 50 mg/kg |
| OCCN1CCN(c2nnc3n2-c2ccccc2C(c2ccccc2Cl)=NC3)CC1 | > 50 mg/kg | 3 mg/kg | 40 mg/kg | 2 mg/kg | > 50 mg/kg | 3 mg/kg | 6 mg/kg | > 50 mg/kg | 0.9 mg/kg | 30 mg/kg |
| N#CCc1nnc2n1-c1ccc(Cl)cc1C(c1ccccc1)=NC2 | 40 mg/kg | 0.63 mg/kg | > 50 mg/kg | > 50 mg/kg | > 50 mg/kg | 0.07 mg/kg | 0.2 mg/kg | > 50 mg/kg | 2 mg/kg | > 50 mg/kg |
| Clc1ccccc1C1=NCc2nnc(Br)n2-c2ccccc21 | > 50 mg/kg | 10.5 mg/kg | > 50 mg/kg | > 50 mg/kg | > 50 mg/kg | 6.2 mg/kg | 25 mg/kg | > 50 mg/kg | 8.8 mg/kg | > 50 mg/kg |
| Clc1ccc2c(c1)C(c1ccccc1)=NCc1nnc(Br)n1-2 | > 50 mg/kg | 2.3 mg/kg | > 50 mg/kg | > 50 mg/kg | > 50 mg/kg | 2 mg/kg | 3 mg/kg | > 50 mg/kg | 6 mg/kg | > 50 mg/kg |
| Clc1ccccc1C1=NCc2nncn2-c2ccccc21 | > 50 mg/kg | > 50 mg/kg | > 50 mg/kg | > 50 mg/kg | > 50 mg/kg | 12.5 mg/kg | 42 mg/kg | > 50 mg/kg | > 50 mg/kg | > 50 mg/kg |
| CN(C)CCCN1c2ccccc2CCc2ccccc21.Cl [IMIPRAMINE HYDROCHLORIDE] |  |  | 1 mg/kg | > 50 mg/kg | 1 mg/kg | 18 mg/kg | 21 mg/kg | > 50 mg/kg |  | 4 mg/kg |
| CCN(CC)CCOc1nnc2n1-c1ccc(Cl)cc1C(c1ccccc1)=NC2 | > 50 mg/kg | 8.8 mg/kg | > 50 mg/kg | > 50 mg/kg | > 50 mg/kg | 2.2 mg/kg | 12.5 mg/kg | > 50 mg/kg | 40 mg/kg | 42 mg/kg |
| CN(C)CCSc1nnc2n1-c1ccc(Cl)cc1C(c1ccccc1)=NC2 | > 50 mg/kg | 3.1 mg/kg | > 50 mg/kg | > 50 mg/kg | > 50 mg/kg | 1.6 mg/kg | 7.4 mg/kg | > 50 mg/kg | > 50 mg/kg | > 50 mg/kg |
| OCc1nnc2n1-c1ccc(Cl)cc1C(c1ccccc1)=NC2 | > 50 mg/kg | 0.1 mg/kg | 20 mg/kg | > 50 mg/kg | > 50 mg/kg | 0.1 mg/kg | 0.2 mg/kg | > 50 mg/kg | 0.9 mg/kg | > 50 mg/kg |

| SMILES | ED50 (Mus musculus [1]) | ED50 (Mus musculus [2]) | ED50 (Mus musculus [3]) | ED50 (Mus musculus [4]) | ED50 (Mus musculus [5]) | ED50 (Mus musculus [6]) | ED50 (Mus musculus [7]) | ED50 (Mus musculus [8]) | ED50 (Mus musculus [9]) | ED50 (Mus musculus [10]) |
| --- | --- | --- | --- | --- | --- | --- | --- | --- | --- | --- |
| Cc1nnc2n1-c1ccc(Cl)cc1C(c1ccccc1)=NC2 [ALPRAZOLAM] | > 50 mg/kg | 0.1 mg/kg | > 50 mg/kg | > 50 mg/kg | > 50 mg/kg | 0.08 mg/kg | 0.2 mg/kg | > 50 mg/kg | 0.2 mg/kg | > 50 mg/kg |
| COC(=O)Cc1nnc2n1-c1ccc(Cl)cc1C(c1ccccc1)=NC2 | > 50 mg/kg | > 50 mg/kg | > 50 mg/kg | > 50 mg/kg | > 50 mg/kg | > 50 mg/kg | > 50 mg/kg | > 50 mg/kg | > 50 mg/kg | > 50 mg/kg |
| CC1=NC(c2ccccc2)c2cc(Cl)ccc2-n2c1nnc2N1CCOCC1 (centres undefined) | > 50 mg/kg | > 50 mg/kg | > 50 mg/kg | > 50 mg/kg | > 50 mg/kg | > 50 mg/kg | > 50 mg/kg | > 50 mg/kg |  | > 50 mg/kg |
| Brc1ccc2c(c1)C(c1ccccn1)=NCc1nncn1-2 | > 50 mg/kg | 0.3 mg/kg | > 50 mg/kg | > 50 mg/kg | > 50 mg/kg | 0.04 mg/kg | 0.4 mg/kg | > 50 mg/kg | 0.2 mg/kg | 42 mg/kg |
| CN(C)CCOc1nnc2n1-c1ccc(Cl)cc1C(c1ccccc1)=NC2 | > 50 mg/kg | 2.2 mg/kg | 25 mg/kg | > 50 mg/kg | > 50 mg/kg | 0.2 mg/kg | 1.1 mg/kg | > 50 mg/kg | 0.8 mg/kg | > 50 mg/kg |
| CN(C)c1nnc2n1-c1ccc(Cl)cc1C(c1ccccc1)=NC2 | > 50 mg/kg | 0.9 mg/kg | 21 mg/kg | > 50 mg/kg | > 50 mg/kg | 0.3 mg/kg | 1.1 mg/kg | > 50 mg/kg | 9 mg/kg | > 50 mg/kg |
| OCCc1nnc2n1-c1ccc(Cl)cc1C(c1ccccc1)=NC2 | > 50 mg/kg | 4 mg/kg | > 50 mg/kg | 30 mg/kg | > 50 mg/kg | > 50 mg/kg | > 50 mg/kg | > 50 mg/kg | 4 mg/kg | > 50 mg/kg |
| CN1CCN(c2nnc3n2-c2ccccc2C(c2ccccc2Cl)=NC3)CC1 | 4.4 mg/kg | 6.2 mg/kg | > 25 mg/kg | 0.2 mg/kg | > 25 mg/kg | > 25 mg/kg | > 25 mg/kg | > 25 mg/kg | 1.1 mg/kg | > 25 mg/kg |
| CSc1nnc2n1-c1ccc(Cl)cc1C(c1ccccc1)=NC2 | > 50 mg/kg | 8 mg/kg | > 50 mg/kg | 10 mg/kg | > 50 mg/kg | 0.8 mg/kg | 10 mg/kg | > 50 mg/kg | 10 mg/kg | > 50 mg/kg |
| Clc1ccccc1C1=NCc2nnc(N3CCOCC3)n2-c2ccccc21 | > 50 mg/kg | 1.6 mg/kg | > 50 mg/kg | > 50 mg/kg | > 50 mg/kg | 0.8 mg/kg | 10.5 mg/kg | > 50 mg/kg | 0.015 mg/kg | > 50 mg/kg |
| Clc1ccc2c(c1)C(c1ccccc1)=NCc1nnc(Cl)n1-2 | > 50 mg/kg | 3.1 mg/kg | > 50 mg/kg | > 50 mg/kg | > 50 mg/kg | 3 mg/kg | 4 mg/kg | > 50 mg/kg | > 50 mg/kg | > 50 mg/kg |
| Clc1ccc2c(c1)C(c1ccccc1)=NCc1nnc(N3CCNCC3)n1-2 | > 50 mg/kg | > 50 mg/kg | 34 mg/kg | > 50 mg/kg | > 50 mg/kg | > 50 mg/kg | > 50 mg/kg | > 50 mg/kg | > 50 mg/kg | > 50 mg/kg |
| N#Cc1nnc2n1-c1ccc(Cl)cc1C(c1ccccc1)=NC2 | > 50 mg/kg |  | > 50 mg/kg | 10 mg/kg | > 50 mg/kg | 4 mg/kg | 3 mg/kg | > 50 mg/kg | > 50 mg/kg | > 50 mg/kg |
| Cc1nnc2n1-c1ccc(Br)cc1C(c1ccccn1)=NC2 |  | 0.12 mg/kg | > 50 mg/kg |  | > 50 mg/kg | 0.035 mg/kg | 0.24 mg/kg |  |  | > 50 mg/kg |
| Cc1nnc2n1-c1ccc(Cl)cc1C(c1ccccc1Cl)=NC2 [TRIAZOLAM] |  | 0.07 mg/kg | > 50 mg/kg |  | > 50 mg/kg |  |  |  | 0.07 mg/kg | > 50 mg/kg |
| CC1=NC(c2ccccc2)c2cc(Cl)ccc2-n2c1nnc2N1CCN(C)CC1 (centres undefined) | > 50 mg/kg | > 50 mg/kg | 40 mg/kg | > 50 mg/kg | > 50 mg/kg | > 50 mg/kg | > 50 mg/kg | > 50 mg/kg |  | > 50 mg/kg |
